Reference: article PMC8744835, “Sterically Hindered Quaternary Phosphonium Salts (QPSs): Antimicrobial Activity and Hemolytic and Cytotoxic Properties” (International Journal of Molecular Sciences, 2021)

Key:
[1] = tested on: methicillin-resistant S. aureus MRSA-1; assay: Antimicrobial activity, serial dilution technique in Mueller–Hinton Broth 2; type: cell-based, Staphylococcus aureus; conditions: - means non-active; for Minimum Inhibitory Concentration (MIC), MRSA-1: MRSA-1 (resistant to fluoroquinolones and beta-lactams)
Procedure: (§1) The synthesized compounds were tested for antimicrobial activity against a number of Gram-positive bacteria, Staphylococcus aureus (Sa), Bacillus cereus (Bc) and Enterococcus faecalis (Ef), and Gram-negative bacteria, Escherichia coli (Ec) and Pseudomonas aeruginosa (Pa), including the methicillin-resistant strains S. aureus MRSA-1 (resistant to fluoroquinolones and beta-lactams) and MRSA-2 (resistant to beta-lactams). The methicillin-resistant strains S. aureus were transferred by the Republican Clinical Hospital of the Republic of Tatarstan (Kazan). The fungicidal activity against Candida albicans (Ca) and Trichophyton mentagrophytes var. gypseum (Tm) was studied. These pathogens were chosen because they are the most widespread in the food industry and the healthcare system.
(§2) The antimicrobial activity of the QPSs was determined using the serial dilution technique in Mueller–Hinton Broth 2. The cultures used for testing included the Gram-positive bacteria Staphylococcus aureus ATCC 6538P FDA 209P, Enterococcus faecalis ATCC 2921 and Bacillus cereus ATCC 10702 NCTC 8035, the Gram-negative bacteria Escherichia coli ATCC 25922 and Pseudomonas aeruginosa ATCC 9027, and the fungi Trichophyton mentagrophytes var. gypseum 1773 and Candida albicans ATCC 10231; methicillin-resistant strains of S. aureus MRSA were obtained from hospital patients with chronic tonsillitis (MRSA-1) and sinusitis (MRSA-2) in the Republican Clinical Hospital (Kazan, Russia). […] The bacterial load was 3.0 × 10^5 cfu/mL. The results were recorded every 24 h for 5 days. The cultures were incubated at 37 °C. The experiment was repeated three times. […] The minimum inhibitory concentration (MIC) was defined as the minimum concentration of a compound that inhibits the growth of the corresponding test micro-organism. The growth of bacteria as well as the absence of growth due to the bacteriostatic action of a compound was recorded.

[2] = tested on: methicillin-resistant S. aureus MRSA-2; assay: as above; type: cell-based, Staphylococcus aureus; conditions: - means non-active; for Minimum Inhibitory Concentration (MIC), MRSA-2: MRSA-2 (resistant to beta-lactams)
Procedure: as §1, §2

[3] = tested on: Escherichia coli ATCC 25922; assay: as above; type: cell-based; conditions: Ec; average of three ± SD; - means non-active
[4] = tested on: Trichophyton mentagrophytes var. gypseum 1773; assay: Fungicidal activity, serial dilution technique; type: cell-based; conditions: Tm, average of three ± SD, - means non-active
Procedure: as §1
(§3) The antimicrobial activity of the QPSs was determined using the serial dilution technique in Mueller–Hinton Broth 2. The cultures used for testing included the Gram-positive bacteria Staphylococcus aureus ATCC 6538P FDA 209P, Enterococcus faecalis ATCC 2921 and Bacillus cereus ATCC 10702 NCTC 8035, the Gram-negative bacteria Escherichia coli ATCC 25922 and Pseudomonas aeruginosa ATCC 9027, and the fungi Trichophyton mentagrophytes var. gypseum 1773 and Candida albicans ATCC 10231; methicillin-resistant strains of S. aureus MRSA were obtained from hospital patients with chronic tonsillitis (MRSA-1) and sinusitis (MRSA-2) in the Republican Clinical Hospital (Kazan, Russia). Ciprofloxacin and ketoconazole were purchased from Sigma-Aldrich. The bacterial load was 3.0 × 10^5 cfu/mL. The results were recorded every 24 h for 5 days. The cultures were incubated at 37 °C. The experiment was repeated three times. […] The minimum inhibitory concentration (MIC) was defined as the minimum concentration of a compound that inhibits the growth of the corresponding test micro-organism. The growth of bacteria as well as the absence of growth due to the bacteriostatic action of a compound was recorded.

[5] = tested on: Candida albicans ATCC 10231; assay: Fungicidal activity, serial dilution technique; type: cell-based; conditions: Ca; average of three ± SD; - means non-active
Procedure: as §1, §3

[6] = tested on: Enterococcus faecalis ATCC 2921; assay: Antimicrobial activity, serial dilution technique in Mueller–Hinton Broth 2; type: cell-based; conditions: Ef; average of three ± SD; - means non-active
Procedure: as §1, §2

[7] = tested on: Escherichia coli ATCC 25922; assay: as above; type: cell-based; conditions: Ec; average of three ± SD; - means non-active; remark: listed apart in the source
Procedure: as §1, §2

[8] = tested on: Bacillus cereus ATCC 10702 NCTC 8035; assay: as above; type: cell-based; conditions: average of three ± SD, - means non-active
Procedure: as §1, §2

[9] = tested on: Pseudomonas aeruginosa ATCC 9027; assay: as above; type: cell-based; conditions: Pa; average of three ± SD; - means non-active
Procedure: as §1, §2

[10] = tested on: Staphylococcus aureus ATCC 6538P FDA 209P; assay: as above; type: cell-based; conditions: average of three ± SD, - means non-active
Procedure: as §1, §2

| Minimum Inhibitory Concentration (MIC), MRSA-1 [1] [mg/L] | Minimum Inhibitory Concentration (MIC), MRSA-2 [2] [mg/L] | Minimum Inhibitory Concentration (MIC), Ef [6] [mg/L] | Minimum Inhibitory Concentration (MIC), Ec [7] [mg/L] | Minimum Inhibitory Concentration (MIC), Bc [8] [mg/L] | Minimum Inhibitory Concentration (MIC), Pa [9] [mg/L] | Minimum Inhibitory Concentration (MIC), Sa [10] [mg/L] | Compound | Minimum Bactericidal and Fungicidal Concentration (MBC, MFC), MRSA-1 [1] [mg/L] | Minimum Bactericidal and Fungicidal Concentration (MBC, MFC), MRSA-2 [2] [mg/L] | Minimum Bactericidal and Fungicidal Concentration (MBC, MFC), Ec [3] [mg/L] | Minimum Bactericidal and Fungicidal Concentration (MBC, MFC), Tm [4] [mg/L] | Minimum Inhibitory Concentration (MIC), Tm [4] [mg/L] | Minimum Bactericidal and Fungicidal Concentration (MBC, MFC), Ca [5] [mg/L] | Minimum Inhibitory Concentration (MIC), Ca [5] [mg/L] | Minimum Bactericidal and Fungicidal Concentration (MBC, MFC), Ef [6] [mg/L] | Minimum Bactericidal and Fungicidal Concentration (MBC, MFC), Bc [8] [mg/L] | Minimum Bactericidal and Fungicidal Concentration (MBC, MFC), Pa [9] [mg/L] | Minimum Bactericidal and Fungicidal Concentration (MBC, MFC), Sa [10] [mg/L] | MBC ([4]; Trichophyton mentagrophytes, read-out: Minimum Bactericidal and Fungicidal Concentration (MBC, MFC), Tm) [mg/L] | MIC ([4]; Trichophyton mentagrophytes, read-out: Minimum Inhibitory Concentration (MIC), Tm) [mg/L] |
| --- | --- | --- | --- | --- | --- | --- | --- | --- | --- | --- | --- | --- | --- | --- | --- | --- | --- | --- | --- | --- |
| 0.3 ± 0.01 | 0.5 ± 0.03 | 0.5 ± 0.04 | 3.9 ± 0.2 | 0.5 ± 0.03 | 3.9 ± 0.2 | 0.2 ± 0.01 | CCCCCCCCCCCCCCC[P+](C(C)(C)C)(C(C)(C)C)C(C)(C)C [Compound 15b] | 0.3 ± 0.01 | 0.5 ± 0.04 | 3.9 ± 0.2 | 62.5 ± 5.2 | 62.5 ± 5.5 | 15.6 ± 1.2 | 1.9 ± 0.1 | 3.9 ± 0.2 | 15.6 ± 1.3 | 3.9 ± 0.3 | 0.5 ± 0.03 |  |  |
| 0.3 ± 0.02 | 0.3 ± 0.01 | 1.9 ± 0.1 | 7.8 ± 0.6 | 0.5 ± 0.04 | 31.3 ± 2.3 | 0.2 ± 0.01 | CCCCCCCCCCCCC[P+](C(C)(C)C)(C(C)(C)C)C(C)(C)C [Compound 13b] | 0.5 ± 0.03 | 3.9 ± 0.3 | 7.8 ± 0.6 | 62.5 ± 5.3 | 62.5 ± 5.2 | 7.8 ± 0.6 | 7.8 ± 0.5 | 3.9 ± 0.3 | 31.3 ± 2.3 | 31.3 ± 2.2 | 0.2 ± 0.01 |  |  |
| 1.9 ± 0.1 | 0.5 ± 0.03 | 0.5 ± 0.04 | 1.9 ± 0.1 | 1.9 ± 0.1 | 3.9 ± 0.02 | 0.5 ± 0.03 | CCCCCCCCCCCCCCCC[P+](C(C)(C)C)(C(C)(C)C)C(C)(C)C [Compound 16b] | 15.6 ± 1.2 | 3.9 ± 0.2 | 1.9 ± 0.1 |  |  | 3.9 ± 0.2 | 3.9 ± 0.2 | 0.5 ± 0.03 | 31.3 ± 2.4 | 62.5 ± 5.3 | 0.5 ± 0.03 | 62.5 ± 5.5 | 62.5 ± 5.6 |
